Values quoted from earlier work in patent US10987332B2, “Sprayable aqueous composition comprising glyceryl trinitrate” (G. POHL-BOSKAMP GMBH & CO. KG, priority 2013, dated 2021).

Legend:
Sprague-Dawley rats [1] = settings: RIP (Modules 2-4)
Sprague-Dawley rats [2] = settings: rat, in vivo

Compound	solubility in water	VPB-Score (Sprague-Dawley rats [1])	Infarct size (Sprague-Dawley rats [2])
O=[N+]([O-])OCC(CO[N+](=O)[O-])O[N+](=O)[O-] [NTG, nitroglycerin]	about 1 mg/ml		
O=[N+]([O-])O[C@H]1CO[C@H]2[C@@H]1OC[C@H]2O[N+](=O)[O-] [ISDN, isosorbide dinitrate]		4.57	7.59±4.38%
